{"source": "patent US20090305994A1", "about": "“Compounds Modulating Vegf Receptor and Uses Thereof” (priority 2005, published 2009)", "biological_target": "T1, Flt-1 (Bos taurus, UniProt F1MDD9)", "T1 construct": "we immunoprecipitated total KDR and Flt-1 from BAEC whole extracts; endogenous in cells; host or cells: BAEC (bovine aorta endothelial cells, SV40-immortalized)", "T1 sequence (F1MDD9 1-1251)": "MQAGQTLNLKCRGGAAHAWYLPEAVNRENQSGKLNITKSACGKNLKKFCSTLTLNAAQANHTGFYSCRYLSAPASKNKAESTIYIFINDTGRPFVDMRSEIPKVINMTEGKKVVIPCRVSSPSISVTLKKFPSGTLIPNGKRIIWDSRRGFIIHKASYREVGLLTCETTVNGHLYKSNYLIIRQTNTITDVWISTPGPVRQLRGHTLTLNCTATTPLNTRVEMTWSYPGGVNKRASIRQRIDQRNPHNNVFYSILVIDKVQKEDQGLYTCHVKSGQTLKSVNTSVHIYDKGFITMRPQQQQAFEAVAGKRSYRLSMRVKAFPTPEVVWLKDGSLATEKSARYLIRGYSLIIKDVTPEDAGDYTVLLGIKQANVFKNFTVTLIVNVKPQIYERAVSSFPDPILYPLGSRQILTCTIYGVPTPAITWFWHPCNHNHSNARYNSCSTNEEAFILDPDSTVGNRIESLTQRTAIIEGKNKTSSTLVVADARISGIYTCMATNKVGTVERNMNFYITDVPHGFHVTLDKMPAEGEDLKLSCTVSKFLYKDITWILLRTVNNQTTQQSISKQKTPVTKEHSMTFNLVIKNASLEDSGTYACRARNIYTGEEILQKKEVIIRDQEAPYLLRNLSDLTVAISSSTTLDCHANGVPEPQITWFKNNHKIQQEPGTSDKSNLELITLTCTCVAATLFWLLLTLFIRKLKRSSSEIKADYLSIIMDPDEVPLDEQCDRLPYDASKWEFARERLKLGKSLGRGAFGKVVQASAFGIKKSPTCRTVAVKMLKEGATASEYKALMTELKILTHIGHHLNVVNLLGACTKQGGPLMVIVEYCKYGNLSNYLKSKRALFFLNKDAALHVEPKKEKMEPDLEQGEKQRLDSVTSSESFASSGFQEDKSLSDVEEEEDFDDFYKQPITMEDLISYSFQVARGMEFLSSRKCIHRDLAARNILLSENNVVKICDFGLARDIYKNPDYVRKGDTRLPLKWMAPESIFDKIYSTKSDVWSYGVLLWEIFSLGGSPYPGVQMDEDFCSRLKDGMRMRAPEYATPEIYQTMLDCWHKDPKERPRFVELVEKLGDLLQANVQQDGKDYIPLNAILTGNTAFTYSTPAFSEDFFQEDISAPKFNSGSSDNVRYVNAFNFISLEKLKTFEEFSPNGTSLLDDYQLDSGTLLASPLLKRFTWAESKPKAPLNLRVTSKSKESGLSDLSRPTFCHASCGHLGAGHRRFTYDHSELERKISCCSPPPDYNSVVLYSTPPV", "assay": "Flt-1 activation (immunoprecipitation, phospho-tyrosine western blot) in BAEC", "assay_type": "cell-based, bovine", "settings": "15 minutes of exposure", "protocol": "VEGF receptors binding and activation. a) VEGF competitive binding on BAEC. 1 μg of membrane protein was plated with QK and [^125I]-VEGF (500000 cpm, 10^−10 M). b) KDR activation. After stimulation total KDR was immunoprecipitated from a whole-cell protein extracts and phospho-tyrosine was visualized by a specific antibody, anti-rabbit HRP-conjugated secondary antibody and standard chemiluminescence. c) Flt-1 activation. After stimulation total Flt-1 was immunoprecipitated from a whole-cell protein extracts and phospho-tyrosine was visualized by specific antibody, anti-rabbit HRP-conjugated secondary antibody and standard chemiluminescence.\nWestern blot. Cells were plated on six-well dishes and serum starved overnight. On the next day, cells were treated with different amount of peptide in absence or in presence of VEGF165 for 15 minutes at 37° C. and then dissolved in RIPA-SDS buffer (50 mM Tris-HCl (pH 7.5), 150 mM NaCl, 1% NP-40, 0.25% deoxycholate, 9.4 mg/50 ml sodium orthovanadate, […]). In some experiments, total KDR and Flt-1 were immunoprecipitated from an equal amount of whole-cell protein extracts using protein A/G agarose beads conjugated with antibodies raised against total KDR or Flt-1 (R&D). Proteins from whole-cell extracts or immunocomplexes were resolved by PAGE and transferred to nitrocellulose. […]"}
{"sequence": "KLTWQELYQLKYKGI [QK]", "values": [{"measurement": "Flt-1 phosphorylation", "value": "increased the levels of phosphorylation of Flt-1"}]}
